Source: paper PMC7395068, “The evolution of strategies to minimise the risk of human drug-induced liver injury (DILI) in drug discovery and development” (Archives of Toxicology, 2020)
Where two headings read alike, the source gives them in different places.

Experiments:
[1] = Plasma free fraction (fu) and unbound Cmax (Cmax,u); format: in vitro ADME, human; details: unbound plasma Cmax
[2] = test system: PHH spheroids; details: In vitro Assay; ref Vorrink 2018; cited from earlier work
[3] = test system: rBsep; details: In vitro Assay; ref Dawson 2012; cited from earlier work
[4] = test system: hLiMTs; details: cited from earlier work
[5] = test system: PHH liver spheroid; design: method as in Foster et al. 2019; details: liver-chip of comparable sensitivity, ref Foster et al. 2019; cited from earlier work
[6] = test system: THLE-Null and THLE-3A4 cells; details: In vitro Assay; ref Gustafsson 2014; cited from earlier work
[7] = cited from earlier work
[8] = test system: PHH; details: In vitro Assay; ref Albrecht 2019; cited from earlier work
[9] = test system: PHH; details: cited from earlier work
[10] = test system: HepG2 C3A spheroid, BSEP, Glu/Gal in HepG2 cells, bioactivation; details: cited from earlier work
[11] = test system: isolated mouse liver mitochondria; details: In vitro Assay; ref Porceddu 2012; cited from earlier work
[12] = test system: HepaRG cells; details: HepaRG cells, BMCs in relation to 10 × human Cmax.tot; ref National Toxicology Program; cited from earlier work
[13] = plasma free fraction; cited from earlier work
[14] = test system: HepaRG spheroids; experiment: Combined HCI (HCS) and cellular ATP 3D assay in HepaRG spheroids; details: for AC50 / minimal effective concentration: Homo sapiens
[15] = test system: hLiMTs; experiment: Combined HCI (HCS) and cellular ATP 3D assay in hLiMTs; details: for AC50 / minimal effective concentration: Homo sapiens
[16] = test system: HepG2; design: method as in Albrecht 2019; details: In vitro Assay; ref Albrecht 2019; cited from earlier work
[17] = cited from earlier work; remark: listed apart in the source
[18] = cited from earlier work; remark: listed apart in the source
[19] = test system: HepG2 cells; details: cited from earlier work
[20] = test system: HepG2 cells; details: cited from earlier work; remark: listed apart in the source
[21] = test system: HepG2 cells; details: cited from earlier work; remark: listed apart in the source
[22] = In vitro Assay, ref Proctor 2017
[23] = Microtissue model structural based (HCI), combined HCS and ATP, MEC < 25 × Cmax.tot cut-off

Q: For CC(=O)Nc1ccc(O)cc1 [acetaminophen], which “Human plasma Cmax,u” value [1] is on record?
A: Its value is 139.840 µM.

Q: And the “hLiMTs ATP <20 x Cmax” value [2]?
A: Its value is “+VE (IC20 < 20 × Cmax.tot cut-off)”.

Q: What about the “Inhibition of rBsep cutoff<1& cmax u>.2” value [3] of the same compound?
A: The value was “-VE”.

Q: What about the “Inhibition of rBsep cutoff<3” value [3] of the same compound?
A: Its value is “-VE”.

Q: What about the “hLiMTs ATP <100uM” value [4, 22] of the same compound?
A: The value was “-VE”.

Q: And the “hLiMTs/100uM, Proctor (2017)” value ([4]; hLiMTs, ATP, IC50 threshold 100 µM, ref Proctor et al. 2017)?
A: Its value is “-VE”.

Q: What about the “detection in 3D microtissues” value [5] of the same compound?
A: Its value is “detected”.

Q: And the THLE-Null [6]?
A: Its THLE-Null is “-VE”.

Q: What about the “DILI severity category (Chen et al. [2016])” value ([7]; LTKB DILIrank category, ref Chen et al. 2016) of the same compound?
A: Its value is “Most”.

Q: What about the DILI severity category ([7]; human DILI severity, ref Chen et al.) of the same compound?
A: The DILI severity category was “Most”.

Q: What about the “DILI +VE (5-8), DILI -VE (-4)” value ([7]; ref Chen 2016) of the same compound?
A: The value was “+VE”.

Q: And the DILI severity category ([7]; ref Chen 2016)?
A: Its DILI severity category is “vMost-DILI-Concern”.

Q: What about the “Cytotoxicity PHH 48 hrs” value [8] of the same compound?
A: Its value is “+VE”.

Q: What about the “PHH/100uM, Proctor (2017)” value ([9]; 2D PHH, ATP, IC50 threshold 100 µM, ref Proctor et al. 2017) of the same compound?
A: The value was “-VE”.

Q: And the “PHH ATP <100uM” value [9, 22]?
A: Its value is “+VE (IC50 threshold of 100 µM)”.

Q: What about the “Bayesian Machine Learning DILI prediction, Williams (2019)” value ([10]; Bayesian modeling, ref Williams et al. 2019) of the same compound?
A: The value was “+VE”.

Q: What about the “Bayesian Machine Learning” value ([10]; In vitro Assay, ref Williams 2019) of the same compound?
A: The value was “+VE”.

Q: What about the “in vitro data EC2<=1x Cmax” value [11] of the same compound?
A: The value was “+VE”.

Q: What about the “in vitro data EC20<=2uM” value [11] of the same compound?
A: The value was “-VE”.

Q: And the “DILI identification by high-throughput transcriptomics” value [12]?
A: Its value is “identified”.

Q: What about the fu [13] of the same compound?
A: The fu was 0.920.

Q: What about the “HepaRG <25x Avg Cmax ATP” value ([14]; HepaRG, ATP endpoint, cut-off <25x Avg Cmax) of the same compound?
A: Its value is “+ve”.

Q: And the “HepaRG <100x Avg Cmaxu ATP” value ([14]; HepaRG, ATP endpoint, cut-off <100x Avg Cmaxu)?
A: Its value is “+ve (<100x Avg Cmaxu)”.

Q: And the “HepaRG <25x Avg Cmax HCS” value ([14]; HepaRG, HCS endpoints, cut-off <25x Avg Cmax)?
A: Its value is “+ve”.

Q: What about the “HepaRG <100x Avg Cmaxu HCS” value ([14]; HepaRG, HCS endpoints, cut-off <100x Avg Cmaxu) of the same compound?
A: Its value is “+ve (<100x Avg Cmaxu)”.

Q: And the “HepaRG <25x Avg Cmax All” value ([14]; HepaRG, all endpoints (ATP and HCS), cut-off <25x Avg Cmax)?
A: The value was “+ve”.

Q: And the “HepaRG Cmax max All” value ([14]; HepaRG, all endpoints, Cmax max used)?
A: The value was “+ve”.

Q: What about the “HepaRG Cmax min All” value ([14]; HepaRG, all endpoints, Cmax min used) of the same compound?
A: The value was “+ve”.

Q: And the “HepaRG <10 uM All” value ([14]; HepaRG, all endpoints, cut-off <10 uM)?
A: The value was “-ve”.

Q: What about the “HepaRG <100x Avg Cmaxu All” value ([14]; HepaRG, all endpoints, cut-off <100x Avg Cmaxu) of the same compound?
A: Its value is “+ve (<100x Avg Cmaxu)”.

Q: What about the AC50 ([14]; HepaRG, read-out: ATP endpoint AC50) of the same compound?
A: Its AC50 is 760 µM.

Q: And the minimal effective concentration ([14]; HepaRG, read-out: ATP endpoint MEC)?
A: Its minimal effective concentration is 187 µM.

Q: What about the AC50 ([14]; HepaRG, read-out: HCS endpoint AC50) of the same compound?
A: Its AC50 is 3100 µM.

Q: What about the minimal effective concentration ([14]; HepaRG, read-out: HCS endpoint MEC) of the same compound?
A: The minimal effective concentration was 656 µM.

Q: What about the “DILI prediction HepaRG spheroids (HCS-MEC)” value [14, 23] of the same compound?
A: The value was “+VE (MEC < 25 × Cmax.tot cut-off)”.

Q: And the AC50 ([15]; read-out: ATP endpoint AC50)?
A: Its AC50 is 1240 µM.

Q: What about the minimal effective concentration ([15]; read-out: ATP endpoint MEC) of the same compound?
A: The minimal effective concentration was 292 µM.

Q: What about the AC50 ([15]; read-out: HCS endpoint AC50) of the same compound?
A: Its AC50 is 4340 µM.

Q: What about the minimal effective concentration ([15]; read-out: HCS endpoint MEC) of the same compound?
A: Its minimal effective concentration is 456 µM.

Q: And the “DILI prediction hLiMTs (HCS-MEC)” value [15, 23]?
A: The value was “+VE (MEC < 25 × Cmax.tot cut-off)”.

Q: And the “hLiMTs <25x Avg Cmax ATP” value ([15]; hLiMTs, ATP endpoint, cut-off <25x Avg Cmax)?
A: The value was “+ve”.

Q: And the “hLiMTs <100x Avg Cmaxu ATP” value ([15]; hLiMTs, ATP endpoint, cut-off <100x Avg Cmaxu)?
A: The value was “+ve (<100x Avg Cmaxu)”.

Q: What about the “hLiMTs <25x Avg Cmax HCS” value ([15]; hLiMTs, HCS endpoints, cut-off <25x Avg Cmax) of the same compound?
A: Its value is “+ve”.

Q: What about the “hLiMTs <100x Avg Cmaxu HCS” value ([15]; hLiMTs, HCS endpoints, cut-off <100x Avg Cmaxu) of the same compound?
A: Its value is “+ve (<100x Avg Cmaxu)”.

Q: And the “hLiMTs <25x Avg Cmax All” value ([15]; hLiMTs, all endpoints (ATP and HCS), cut-off <25x Avg Cmax)?
A: The value was “+ve”.

Q: What about the “hLiMTs Cmax max All” value ([15]; hLiMTs, all endpoints, Cmax max used) of the same compound?
A: Its value is “+ve”.

Q: What about the “hLiMTs Cmax min All” value ([15]; hLiMTs, all endpoints, Cmax min used) of the same compound?
A: The value was “+ve”.

Q: What about the “hLiMTs <10 uM All” value ([15]; hLiMTs, all endpoints, cut-off <10 uM) of the same compound?
A: Its value is “-ve”.

Q: And the “hLiMTs <100x Avg Cmaxu All” value ([15]; hLiMTs, all endpoints, cut-off <100x Avg Cmaxu)?
A: The value was “+ve (<100x Avg Cmaxu)”.

Q: What about the “Cytotoxicity HepG2 48 hrs” value [16] of the same compound?
A: The value was “+VE”.

Q: And the Cmax ([17]; read-out: Cmax.tot, value used by Albrecht, ref Albrecht et al. 2019)?
A: The Cmax was 109 µM.

Q: And the Cmax ([17]; read-out: Human plasma Cmax, total plasma Cmax.tot, median of 9 literature references)?
A: Its Cmax is 152 µM.

Q: And the “Assigned DILI category” value ([18]; Chen et al. 2016 or literature alignment, ref Chen et al. 2016)?
A: The value was 3.

Q: What about the “In vivo DILI” value ([18]; […]) of the same compound?
A: Its value is “+VE”.

Q: What about the “In vivo DILI” value ([18]; ref Albrecht 2019) of the same compound?
A: Its value is “+VE”.

Q: What about the “In vivo DILI” value ([18]; ref Dawson 2012) of the same compound?
A: Its value is “+VE”.

Q: And the “In vivo DILI” value ([18]; ref Garside 2014)?
A: Its value is “+VE”.

Q: And the “In vivo DILI” value ([18]; ref Gustafsson 2014)?
A: The value was “+VE”.

Q: What about the “In vivo DILI” value ([18]; ref O'Brien 2006) of the same compound?
A: Its value is “+VE”.

Q: What about the “In vivo DILI” value ([18]; ref Persson 2013) of the same compound?
A: The value was “+VE”.

Q: And the “In vivo DILI” value ([18]; ref Porceddu 2012)?
A: The value was “+VE”.

Q: What about the “In vivo DILI” value ([18]; ref Proctor 2017) of the same compound?
A: Its value is “+VE”.

Q: What about the “In vivo DILI” value ([18]; ref Schadt 2015) of the same compound?
A: Its value is “+VE”.

Q: What about the “In vivo DILI” value ([18]; ref Tolosa 2012) of the same compound?
A: Its value is “+VE”.

Q: What about the “In vivo DILI” value ([18]; ref Vorrink 2018) of the same compound?
A: Its value is “+VE”.

Q: And the “In vivo DILI” value ([18]; ref Williams 2019)?
A: Its value is “+VE”.

Q: What about the “In vivo DILI” value ([18]; ref Xu 2008) of the same compound?
A: The value was “+VE”.

Q: And the “Structural based (HCI)” value ([19]; In vitro Assay, ref Persson 2013)?
A: The value was “-VE”.

Q: What about the “DILI in vitro assay prediction, Persson (2013)” value ([19]; Structural based (HCI), HepG2, ref Persson et al. 2013) of the same compound?
A: Its value is “-VE”.

Q: And the “Structural based (HCI)” value ([20]; In vitro Assay, ref O'Brien 2006)?
A: Its value is “+VE”.

Q: And the “DILI in vitro assay prediction, O'Brien (2006)” value ([20]; Structural based (HCI), HepG2, ref O'Brien et al. 2006)?
A: Its value is “+VE (lowest HCI endpoint IC50 (or in the absence of dose–response < 100 µM) < 30 × total human plasma exposure levels (Cmax.tot))”.

Q: What about the “Structural based (HCI)” value ([21]; In vitro Assay, ref Tolosa 2012) of the same compound?
A: The value was “+VE”.

Q: And the “DILI in vitro assay prediction, Tolosa (2012)” value ([21]; Structural based (HCI), HepG2, ref Tolosa et al. 2012)?
A: Its value is “+VE”.
